These compounds were tested against T1, BRD4 (BD1) (Homo sapiens, UniProt O60885) (assay: Binding assay BRD4/acetylated peptide H4 (TR-FRET protein-protein interaction assay)).
T1 construct: with relatively long constructs also being possible, preferably amino acids 44-168; made in house; host or cells: E. coli
Source text: Binding Assay BRD4/Acetylated Peptide H4 (“PRO”)
To assess the BRD4 binding of the substances described in the present application, their ability to inhibit the interaction between BRD4 (BD1) and acetylated histone H4 in a dose-dependent manner was quantified (Filippakopoulos et al., Cell, 2012, 149: 214-231).
For this purpose, use was made of a time-resolved fluorescence resonance energy transfer (TR-FRET) assay which measured binding between N-terminally His6-tagged BRD4 (BD1) (amino acids 67-152, with relatively long constructs also being possible, preferably amino acids 44-168) and a synthetic acetylated histone H4 (Ac—H4) peptide having the sequence GRGK(Ac)GGK(Ac)GLGK(Ac)GGAK(Ac)RHGSGSK-biotin. The recombinant BRD4 protein-produced according to Filippakopoulos et al., Cell, 2012, 149: 214-231—was expressed in E. coli and purified by (Ni-NTA) affinity and (Sephadex G-75) size exclusion chromatography. The Ac—H4 peptide is commercially available, for example from Biosyntan (Berlin, Germany). In a typical assay, 11 different concentrations of each substance (0.1 nM, 0.33 nM, 1.1 nM, 3.8 nM, 13 nM, 44 nM, 0.15 μM, 0.51 μM, 1.7 μM, 5.9 μM and 20 μM) were measured in duplicate on the same microtitre plate. To this end, 100-fold concentrated solutions in DMSO were prepared by serial dilution (1:3.4) of a 2 mM stock solution in a clear 384-well microtitre platte (Greiner Bio-One, Frickenhausen, Germany) 50 nl of these were transferred into a black test plate (Greiner Bio-One, Frickenhausen, Germany). The test was started by addition of 2 μl of a 2.5-fold concentrated BRD4 solution (final concentration usually 10 nM in the […] of the reaction volume) in aqueous assay buffer [50 mM HEPES pH 7.5. 50 mM sodium chloride (NaCl), 0.25 mM CHAPS and 0.05% serum albumin (BSA)] to the substances in the test plate. This was followed by a 10-minute incubation step at 22° C. to pre-equilibrate putative complexes between BRD4 and the substances.
The mixture was then incubated in the dark for one hour at 22° C. and then for at least 3 hours and at most overnight at 4° C. Formation of BRD4/Ac—H4 complexes was determined by measuring the resonance energy transfer from the streptavidin-Eu cryptate to the anti-6His-XL665 antibody in the reaction. To this end, the fluorescence emission was measured at 620 nm and 665 nm after excitation at 330-350 nm in a TR-FRET measuring device, for example a Rubystar or Pherastar (both from BMG Lab Technologies, Offenburg, Germany) or a Viewlux (Perkin-Elmer). The ratio of the emission at 665 nm and at […] was used as an indicator for the amount of BRD4/Ac—H4 complexes formed.
The data obtained (ratios) were normalized, with 0% inhibition corresponding to the mean of the measured values of a set of controls (usually 32 data points) comprising all reagents. Here, 50 nl of DMSO (100%) were used instead of test substances. An inhibition of 100% corresponded to the mean of the measured values of a set of controls (usually 32 data points) comprising all reagents except for BRD4. The IC50 was determined by regression analysis based on a 4-parameter equation (minimum, maximum, IC50, Hill; Y=Max+(Min−Max)/(1+(X/IC 50)^Hill)).

Row | Compound | IC50 [nM]
1 | CCC1Cc2cc(OC)c(OC)cc2C(c2ccc(N3CCS(=O)(=O)CC3)cc2)=NN1C(=O)NC (racemic) [Example 206, (±)-1-[4-(1,1-dioxidothiomorpholin-4-yl)phenyl]-4-ethyl-7,8-dimethoxy-N-methyl-4,5-dihydro-3H-2,3-benzodiazepine-3-carboxamide] | 930
2 | CCC1Cc2cc(OC)c(OC)cc2C(c2ccc(N3CCOCC3=O)cc2)=NN1C(=O)NC (racemic) [Example 226, (±)-4-ethyl-7,8-dimethoxy-N-methyl-1-[4-(3-oxomorpholin-4-yl)phenyl]-4,5-dihydro-3H-2,3-benzodiazepine-3-carboxamide] | 8760
3 | CNC(=O)N1N=C(c2ccc(N3CCC(CCO)CC3)cc2)c2cc(OC)c(OC)cc2CC1C (racemic) [Example 183, (±)-1-{4-[4-(2-hydroxyethyl)piperidin-1-yl]phenyl}-7,8-dimcthoxy-N,4-dimethyl-4,5-dihydro-3H-2,3-benzodiazepine-3-carboxamide] | 40
4 | CNC(=O)N1N=C(c2ccc(N3C[C@@H](C)O[C@@H](C)C3)cc2)c2cc(OC)c(OC)cc2C[C@@H]1C [Example 195, (4S)-1-{4-[(2R,6S)-2,6-dimethylmorpholin-4-yl]phenyl}-7,8-dimethoxy-N,4-dimethyl-4,5-dihydro-3H-2,3-benzodiazepine-3-carboxamide] | 690
5 | CCNC(=O)N1N=C(c2ccc(N3CCN(C)CC3)cc2)c2cc(OC)c(OC)cc2CC1C (racemic) [Example 261, (±)-N-Ethyl-7,8-dimethoxy-4-methyl-1-[4-(4-methylpiperazin-1-yl)phenyl]-4,5-dihydro-3H-2,3-benzodiazepine-3-carboxamide] | 1490
6 | CNC(=O)N1N=C(c2ccc(N3CCN(C(C)=O)CC3)cc2)c2ccc(OC(F)(F)F)cc2CC1C (racemic) [Example 217, (±)-1-[4-(4-acetylpiperazin-1-yl)phenyl]-N,4-dimethyl-7-(trifluoromethoxy)-4,5-dihydro-3H-2,3-benzodiazepine-3-carboxamide] | 1730
7 | CNC(=O)N1N=C(c2ccc(Cl)cc2)c2ccc(N3CCOCC3=O)cc2CC1C (racemic) [Example 232, (±)-1-(4-chlorophenyl)-N,4-dimethyl-7-(3-oxomorpholin-4-yl)-4,5-dihydro-3H-2,3-benzodiazepine-3-carboxamide] | 2840
8 | CNC(=O)N1N=C(c2cc(N3CCN(C)CC3)c(Br)cc2Br)c2cc(OC)c(OC)cc2CC1C (racemic) [Example 252, (±)-1-[2,4-Dibromo-5-(4-methylpiperazin-1-yl)phenyl]-7,8-dimethoxy-N,4-dimethyl-4,5-dihydro-3H-2,3-benzodiazepine-3-carboxamide] | 5290
9 | CCC1Cc2cc(OC)c(OC)cc2C(c2ccc(N3CCNCC3)cc2)=NN1C(=O)NC (racemic) [Example 202, (±)-4-ethyl-7,8-dimethoxy-N-methyl-1-[4-(piperazin-1-yl)phenyl]-4,5-dihydro-3H-2,3-benzodiazepine-3-carboxamide] | 1230
10 | CNC(=O)N1N=C(c2ccc(Cl)cc2)c2ccc(-c3ccc(F)cc3)cc2CC1C (racemic) [Example 239, (±)-1-(4-chlorophenyl)-7-(4-fluorophenyl)-N,4-dimethyl-4,5-dihydro-3H-2,3-benzodiazepine-3-carboxamide] | 11400

The remaining compounds from weak to strong by IC50, led by results:

Row | IC50 [nM] | Compound
11 | 7690 | CNC(=O)N1N=C(c2ccc(-c3c(C)nn(C)c3C)cc2)c2cc(OC)c(OC)cc2CC1C(C)C (racemic) [Example 224, (±)-4-isopropyl-7,8-dimethoxy-N-methyl-1-[4-(1,3,5-trimethyl-1H-pyrazol-4-yl)phenyl]-4,5-dihydro-3H-2,3-benzodiazepine-3-carboxamide]
12 | 5300 | CNC(=O)N1N=C(c2ccc(N3C[C@@H](C)N[C@@H](C)C3)cc2)c2cc(OC)c(OC)cc2C[C@@H]1C [Example 198, (4S)-1-{4-[(3R,5S)-3,5-dimethylpiperazin-1-yl]phenyl}-7,8-dimethoxy-N,4-dimethyl-4,5-dihydro-3H-2,3-benzodiazepine-3-carboxamide]
13 | 5020 | CNC(=O)N1N=C(c2ccc(Cl)cc2)c2ccc(N3CCS(=O)(=O)CC3)cc2CC1C (racemic) [Example 235, (±)-1-(4-chlorophenyl)-7-(1,1-dioxidothiomorpholin-4-yl)-N,4-dimethyl-4,5-dihydro-3H-2,3-benzodiazepine-3-carboxamide]
14 | 4500 | CNC(=O)N1N=C(c2ccc(Cl)cc2)c2ccc(-c3ccncc3)cc2CC1C (racemic) [Example 240, (±)-1-(4-chlorophenyl)-N,4-dimethyl-7-(pyridin-4-yl)-4,5-dihydro-3H-2,3-benzodiazepine-3-carboxamide]
15 | 3770 | CNC(=O)N1N=C(c2ccc(N3CCC(OC)CC3)cc2)c2cc(OC)c(OC)cc2C[C@H]1C [Example 179.1, (4R)-7,8-dimethoxy-1-[4-(4-methoxypiperidin-1-yl)phenyl]-N,4-dimethyl-4,5-dihydro-3H-2,3-benzodiazepine-3-carboxamide]
16 | 2200 | CNC(=O)N1N=C(c2ccc(Cl)cc2)c2ccc(N3CCN(C)CC3)cc2CC1C (racemic) [Example 236, (±)-1-(4-chlorophenyl)-N,4-dimethyl-7-(4-methylpiperazin-1-yl)-4,5-dihydro-3H-2,3-benzodiazepine-3-carboxamide]
17 | 1980 | CCC1Cc2cc(OC)c(OC)cc2C(c2ccc(-c3ccc(F)cc3)cc2)=NN1C(=O)NC (racemic) [Example 221, (±)-4-ethyl-1-(4′-fluorobiphenyl-4-yl)-7,8-dimethoxy-N-methyl-4,5-dihydro-3H-2,3-benzodiazepine-3-carboxamide]
18 | 1370 | CCC1Cc2cc(OC)c(OC)cc2C(c2ccc(N3CCN(C)CC3)cc2)=NN1C(=O)NC (racemic) [Example 201, (±)-4-ethyl-7,8-dimethoxy-N-methyl-1-[4-(4-methylpiperazin-1-yl)phenyl]-4,5-dihydro-3H-2,3-benzodiazepine-3-carboxamide]
19 | 1220 | CCC1Cc2cc(OC)c(OC)cc2C(c2ccc(N3CCC(O)CC3)cc2)=NN1C(=O)NC (racemic) [Example 207, (±)-4-ethyl-1-[4-(4-hydroxypiperidin-1-yl)phenyl]-7,8-dimethoxy-N-methyl-4,5-dihydro-3H-2,3-benzodiazepine-3-carboxamide]
20 | 190 | CNC(=S)N1N=C(c2ccc(N3CCN(C)CC3)cc2)c2cc(OC)c(OC)cc2CC1C (racemic) [Example 258, (±)-7,8-Dimethoxy-N,4-dimethyl-1-[4-(4-methylpiperazin-1-yl)phenyl]-4,5-dihydro-3H-2,3-benzodiazepine-3-carbothioamide]
21 | 60 | CNC(=O)N1N=C(c2ccc(-c3cccnc3Cl)cc2)c2cc(OC)c(OC)cc2C[C@@H]1C [Example 4.2, (S)-1-[4-(2-chloropyridin-3-yl)phenyl]-7,8-dimethoxy-N,4-dimethyl-4,5-dihydro-3H-2,3-benzodiazepine-3-carboxamide]
22 | 30 | CNC(=O)N1N=C(c2ccc(N3CC[C@H](O)C3)cc2)c2cc(OC)c(OC)cc2C[C@@H]1C [Example 190.1, (4S)-1-{4-[(3S)-3-hydroxypyrrolidin-1-yl]phenyl}-7,8-dimethoxy-N,4-dimethyl-4,5-dihydro-3H-2,3-benzodiazepine-3-carboxamide]

From patent US9890147B2 (BAYER PHARMA AKTIENGESELLSCHAFT, priority 2012, dated 2018)
